Test results as given in the supplement of paper PMC10883282.
± gives the standard deviation of the averaged measurements.

Tests used:
Assay in all cases: relative viability vs DMSO control (72 h) (fraction); higher = more viable cells
SW872 = system: SW872
Method in brief: (§1)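 Sarcoma cell lines went into 384-well plates at densities chosen to reach 80–90% confluence. After 24 h, each well received 2.5 µl of serially diluted compound, with source plates running from 10 mM to 0.0002 mM, and the plates were kept 72 h at 37 °C, 5% CO2, alongside 0.1% DMSO vehicle and a 5 µM positive control. Relative viability was derived from ATPLite readings as percent growth and averaged over up to triplicate wells. The data were then rescaled so that 1 stands for full and 0 for none.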

KHOS-240S = system: KHOS-240S
Method in brief: as §1

SK-LMS-1 = system: SK-LMS-1
Method in brief: as §1

SW1353 = system: SW1353
Method in brief: as §1

RD-ES = system: RD-ES
Method in brief: as §1

HT1080 = system: HT1080
Method in brief: as §1

RD = system: RD
Method in brief: as §1

SYO-1 = system: SYO-1
Method in brief: as §1

G401 = system: G401
Method in brief: as §1

HS729 = system: HS729
Method in brief: as §1

SW684 = system: SW684
Method in brief: as §1

KHOS-NP = system: KHOS-NP
Method in brief: as §1

## C[C@H]1Oc2cc(cnc2N)-c2c(nn(C)c2C#N)CN(C)C(=O)c2ccc(F)cc21 [Lorlatinib]
SW872; 0.00017 µM
  relative viability: 1.08 ± 0.012
SW872; 0.00051 µM
  relative viability: 1.05 ± 0.034
SW872; 0.00152 µM
  relative viability: 1.04 ± 0.044
SW872; 0.00457 µM
  relative viability: 1.04 ± 0.07
SW872; 0.01372 µM
  relative viability: 1 ± 0.081
SW872; 0.04115 µM
  relative viability: 0.956 ± 0.04
SW872; 0.1235 µM
  relative viability: 0.921 ± 0.079
SW872; 0.3704 µM
  relative viability: 0.838 ± 0.083
SW872; 1.111 µM
  relative viability: 0.798 ± 0.045
SW872; 3.333 µM
  relative viability: 0.718 ± 0.05
SW872; 10 µM
  relative viability: 0.658 ± 0.034
KHOS-240S; 0.00017 µM
  relative viability: 1.06 ± 0.045
KHOS-240S; 0.00051 µM
  relative viability: 1.08 ± 0.052
KHOS-240S; 0.00152 µM
  relative viability: 1.07 ± 0.051
KHOS-240S; 0.00457 µM
  relative viability: 1.07 ± 0.096
KHOS-240S; 0.01372 µM
  relative viability: 1.06 ± 0.044
KHOS-240S; 0.04115 µM
  relative viability: 1.01 ± 0.069
KHOS-240S; 0.1235 µM
  relative viability: 1.01 ± 0.072
KHOS-240S; 0.3704 µM
  relative viability: 1.01 ± 0.011
KHOS-240S; 1.111 µM
  relative viability: 0.969 ± 0.023
KHOS-240S; 3.333 µM
  relative viability: 0.915 ± 0.087
KHOS-240S; 10 µM
  relative viability: 0.865 ± 0.038
SK-LMS-1; 0.00017 µM
  relative viability: 1.12 ± 0.06
SK-LMS-1; 0.00051 µM
  relative viability: 1.095 ± 0.0097
SK-LMS-1; 0.00152 µM
  relative viability: 1.081 ± 0.0044
SK-LMS-1; 0.00457 µM
  relative viability: 1.09 ± 0.057
SK-LMS-1; 0.01372 µM
  relative viability: 1.1 ± 0.049
SK-LMS-1; 0.04115 µM
  relative viability: 1.09 ± 0.082
SK-LMS-1; 0.1235 µM
  relative viability: 1.07 ± 0.071
SK-LMS-1; 0.3704 µM
  relative viability: 1.02 ± 0.038
SK-LMS-1; 1.111 µM
  relative viability: 1.02 ± 0.041
SK-LMS-1; 3.333 µM
  relative viability: 1 ± 0.052
SK-LMS-1; 10 µM
  relative viability: 0.933 ± 0.015
SW1353; 0.00017 µM
  relative viability: 1.04 ± 0.027
SW1353; 0.00051 µM
  relative viability: 1.06 ± 0.026
SW1353; 0.00152 µM
  relative viability: 1.027 ± 0.01
SW1353; 0.00457 µM
  relative viability: 0.992 ± 0.035
SW1353; 0.01372 µM
  relative viability: 0.985 ± 0.022
SW1353; 0.04115 µM
  relative viability: 1 ± 0.04
SW1353; 0.1235 µM
  relative viability: 0.976 ± 0.045
SW1353; 0.3704 µM
  relative viability: 0.889 ± 0.068
SW1353; 1.111 µM
  relative viability: 0.851 ± 0.037
SW1353; 3.333 µM
  relative viability: 0.839 ± 0.046
SW1353; 10 µM
  relative viability: 0.792 ± 0.023
RD-ES; 0.00017 µM
  relative viability: 0.973 ± 0.021
RD-ES; 0.00051 µM
  relative viability: 0.96 ± 0.048
RD-ES; 0.00152 µM
  relative viability: 0.972 ± 0.016
RD-ES; 0.00457 µM
  relative viability: 0.978 ± 0.012
RD-ES; 0.01372 µM
  relative viability: 0.969 ± 0.018
RD-ES; 0.04115 µM
  relative viability: 0.9601 ± 0.0037
RD-ES; 0.1235 µM
  relative viability: 0.965 ± 0.018
RD-ES; 0.3704 µM
  relative viability: 0.891 ± 0.016
RD-ES; 1.111 µM
  relative viability: 0.861 ± 0.026
RD-ES; 3.333 µM
  relative viability: 0.74 ± 0.014
RD-ES; 10 µM
  relative viability: 0.499 ± 0.013
HT1080; 0.00017 µM
  relative viability: 1.09 ± 0.018
HT1080; 0.00051 µM
  relative viability: 1.08 ± 0.033
HT1080; 0.00152 µM
  relative viability: 1.09 ± 0.083
HT1080; 0.00457 µM
  relative viability: 1.1 ± 0.037
HT1080; 0.01372 µM
  relative viability: 1.08 ± 0.015
HT1080; 0.04115 µM
  relative viability: 1.03 ± 0.06
HT1080; 0.1235 µM
  relative viability: 1.07 ± 0.025
HT1080; 0.3704 µM
  relative viability: 1.09 ± 0.044
HT1080; 1.111 µM
  relative viability: 1.03 ± 0.067
HT1080; 3.333 µM
  relative viability: 1.09 ± 0.051
HT1080; 10 µM
  relative viability: 1.05 ± 0.042
RD; 0.00017 µM
  relative viability: 1.09 ± 0.057
RD; 0.00051 µM
  relative viability: 1.11 ± 0.035
RD; 0.00152 µM
  relative viability: 1.11 ± 0.064
RD; 0.00457 µM
  relative viability: 1.09 ± 0.044
RD; 0.01372 µM
  relative viability: 1.12 ± 0.075
RD; 0.04115 µM
  relative viability: 1.07 ± 0.069
RD; 0.1235 µM
  relative viability: 1.02 ± 0.054
RD; 0.3704 µM
  relative viability: 1 ± 0.032
RD; 1.111 µM
  relative viability: 0.948 ± 0.045
RD; 3.333 µM
  relative viability: 0.838 ± 0.016
RD; 10 µM
  relative viability: 0.668 ± 0.035
SYO-1; 0.00017 µM
  relative viability: 0.99 ± 0.018
SYO-1; 0.00051 µM
  relative viability: 0.982 ± 0.04
SYO-1; 0.00152 µM
  relative viability: 0.985 ± 0.038
SYO-1; 0.00457 µM
  relative viability: 0.966 ± 0.039
SYO-1; 0.01372 µM
  relative viability: 0.966 ± 0.024
SYO-1; 0.04115 µM
  relative viability: 0.921 ± 0.017
SYO-1; 0.1235 µM
  relative viability: 0.873 ± 0.037
SYO-1; 0.3704 µM
  relative viability: 0.844 ± 0.06
SYO-1; 1.111 µM
  relative viability: 0.768 ± 0.069
SYO-1; 3.333 µM
  relative viability: 0.737 ± 0.087
SYO-1; 10 µM
  relative viability: 0.66 ± 0.077
G401; 0.00017 µM
  relative viability: 1.05 ± 0.047
G401; 0.00051 µM
  relative viability: 1.05 ± 0.037
G401; 0.00152 µM
  relative viability: 1.04 ± 0.011
G401; 0.00457 µM
  relative viability: 1.03 ± 0.016
G401; 0.01372 µM
  relative viability: 1.06 ± 0.013
G401; 0.04115 µM
  relative viability: 1.02 ± 0.063
G401; 0.1235 µM
  relative viability: 0.968 ± 0.0083
G401; 0.3704 µM
  relative viability: 0.984 ± 0.025
G401; 1.111 µM
  relative viability: 1 ± 0.052
G401; 3.333 µM
  relative viability: 1.01 ± 0.047
G401; 10 µM
  relative viability: 0.916 ± 0.063
HS729; 0.00017 µM
  relative viability: 1.06 ± 0.025
HS729; 0.00051 µM
  relative viability: 0.956 ± 0.017
HS729; 0.00152 µM
  relative viability: 0.897 ± 0.039
HS729; 0.00457 µM
  relative viability: 0.958 ± 0.077
HS729; 0.01372 µM
  relative viability: 0.878 ± 0.019
HS729; 0.04115 µM
  relative viability: 0.886 ± 0.024
HS729; 0.1235 µM
  relative viability: 0.829 ± 0.027
HS729; 0.3704 µM
  relative viability: 0.899 ± 0.068
HS729; 1.111 µM
  relative viability: 0.803 ± 0.089
HS729; 3.333 µM
  relative viability: 0.781 ± 0.037
HS729; 10 µM
  relative viability: 0.662 ± 0.039
SW684; 0.00017 µM
  relative viability: 1.13 ± 0.053
SW684; 0.00051 µM
  relative viability: 1.2 ± 0.059
SW684; 0.00152 µM
  relative viability: 1.17 ± 0.031
SW684; 0.00457 µM
  relative viability: 1.17 ± 0.081
SW684; 0.01372 µM
  relative viability: 1.17 ± 0.039
SW684; 0.04115 µM
  relative viability: 1.185 ± 0.0046
SW684; 0.1235 µM
  relative viability: 1.15 ± 0.059
SW684; 0.3704 µM
  relative viability: 1.09 ± 0.084
SW684; 1.111 µM
  relative viability: 1.14 ± 0.051
SW684; 3.333 µM
  relative viability: 1.12 ± 0.09
SW684; 10 µM
  relative viability: 1.12 ± 0.02
KHOS-NP; 0.00017 µM
  relative viability: 1.09 ± 0.014
KHOS-NP; 0.00051 µM
  relative viability: 1.091 ± 0.0096
KHOS-NP; 0.00152 µM
  relative viability: 1.09 ± 0.016
KHOS-NP; 0.00457 µM
  relative viability: 1.07 ± 0.031
KHOS-NP; 0.01372 µM
  relative viability: 1.07 ± 0.03
KHOS-NP; 0.04115 µM
  relative viability: 1.06 ± 0.013
KHOS-NP; 0.1235 µM
  relative viability: 1.02 ± 0.039
KHOS-NP; 0.3704 µM
  relative viability: 1.07 ± 0.025
KHOS-NP; 1.111 µM
  relative viability: 0.999 ± 0.016
KHOS-NP; 3.333 µM
  relative viability: 1.02 ± 0.011
KHOS-NP; 10 µM
  relative viability: 0.954 ± 0.05
